Legend:
Assay in all cases: relative viability (nuclei count vs DMSO), 5 days (fraction); higher = more cells survive
[1] = compound: C[As](C)SC[C@H](NC(=O)CC[C@H](N)C(=O)O)C(=O)NCC(=O)O [Darinaparsin] + Cc1cc(Nc2cc(N3CCN(C)CC3)nc(Sc3ccc(NC(=O)C4CC4)cc3)n2)n[nH]1 [Tozasertib] (partner 0.1 µM)
Summary of the method: (§1)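 One day after seeding in 1536-well plates, lung cancer cell lines were dosed by pin tool. Dosing was either single-drug or a fixed anchor-drug dose plus five library-drug doses (not always all listed) in √10 steps. After 5 days, nuclei were stained in one fix-and-stain step and counted on 4× images, and relative viability is the nuclei count of treated wells over that of vehicle wells, given as the median of duplicate plates.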

[2] = compound: C[As](C)SC[C@H](NC(=O)CC[C@H](N)C(=O)O)C(=O)NCC(=O)O [Darinaparsin] + COc1cc2c(Oc3ccc(NC(=O)C4(C(=O)Nc5ccc(F)cc5)CC4)cc3F)ccnc2cc1OCCCN1CCOCC1 [Foretinib] (partner 0.25 µM)
Summary of the method: as §1

[3] = compound: C[As](C)SC[C@H](NC(=O)CC[C@H](N)C(=O)O)C(=O)NCC(=O)O [Darinaparsin] + C[C@@H](Oc1cc(-c2cnn(C3CCNCC3)c2)cnc1N)c1c(Cl)ccc(F)c1Cl [Crizotinib] (partner 1 µM)
Summary of the method: as §1

[4] = compound: C[As](C)SC[C@H](NC(=O)CC[C@H](N)C(=O)O)C(=O)NCC(=O)O [Darinaparsin] + Cc1nc(NC(=O)N2CCC[C@H]2C(N)=O)sc1-c1ccnc(C(C)(C)C(F)(F)F)c1 [Alpelisib] (partner 2 µM)
Summary of the method: as §1

[5] = compound: C[As](C)SC[C@H](NC(=O)CC[C@H](N)C(=O)O)C(=O)NCC(=O)O [Darinaparsin] + COc1cccc2cc(-c3nc([C@H]4CC[C@H](C(=O)O)CC4)n4ncnc(N)c34)[nH]c12 [OSI-027] (partner 0.5 µM)
Summary of the method: as §1

| Cell Line | relative viability ([1]; first compound 0.08 µM) | relative viability ([1]; first compound 0.8 µM) | relative viability ([1]; first compound 2.53 µM) | relative viability ([1]; first compound 8 µM) | relative viability ([2]; first compound 0.08 µM) | relative viability ([2]; first compound 0.8 µM) | relative viability ([2]; first compound 2.53 µM) | relative viability ([2]; first compound 8 µM) | relative viability ([3]; first compound 0.08 µM) | relative viability ([3]; first compound 0.8 µM) | relative viability ([3]; first compound 2.53 µM) | relative viability ([3]; first compound 8 µM) | relative viability ([4]; first compound 0.08 µM) | relative viability ([4]; first compound 0.8 µM) | relative viability ([4]; first compound 2.53 µM) | relative viability ([4]; first compound 8 µM) | relative viability ([5]; first compound 0.08 µM) | relative viability ([5]; first compound 0.8 µM) | relative viability ([5]; first compound 2.53 µM) | relative viability ([5]; first compound 8 µM) |
| --- | --- | --- | --- | --- | --- | --- | --- | --- | --- | --- | --- | --- | --- | --- | --- | --- | --- | --- | --- | --- |
| H3255 | 0.605 | 0.585 | 0.63 | 0.598 | 0.781 | 0.863 | 0.913 | 0.854 | 1.14 | 0.773 | 0.789 | 0.895 | 0.761 | 0.626 | 0.636 | 0.792 | 0.607 | 0.543 | 0.618 | 0.547 |
| HCC-827 | 0.435 | 0.453 | 0.422 | 0.491 | 1.16 | 1.09 | 1.02 | 1.06 | 0.959 | 0.853 | 0.979 | 0.965 | 1.05 | 1.04 | 1.01 | 1.04 | 0.705 | 0.837 | 0.626 | 0.766 |
| LXF-289 | 0.204 | 0.195 | 0.204 | 0.229 | 1.07 | 0.994 | 0.946 | 1.1 | 0.855 | 0.814 | 0.682 | 0.906 | 1.11 | 1.06 | 0.851 | 1.16 | 0.849 | 0.786 | 0.649 | 1.02 |
| NCI-H727 | 0.731 | 0.552 | 0.699 | 0.599 | 0.917 | 0.863 | 1.11 | 1 | 0.713 | 0.786 | 0.77 | 0.988 | 0.718 | 0.587 | 0.549 | 0.683 | 0.77 | 0.541 | 0.794 | 0.854 |
| NCI-H322M | 0.564 | 0.464 | 0.423 | 0.492 | 1.04 | 1.04 | 0.826 | 1.02 | 1.02 | 1.06 | 0.753 | 1.03 | 0.89 | 0.692 | 0.632 | 0.787 | 0.611 | 0.531 | 0.545 | 0.573 |
| NCI-H2126 | 0.935 | 0.794 | 0.69 | 0.878 | 1.17 | 1.1 | 1.05 | 1.13 | 1.14 | 1.01 | 0.93 | 1.12 | 0.803 | 0.737 | 0.616 | 0.804 | 0.726 | 0.764 | 0.635 | 0.639 |
| NCI-H2405 | 0.777 | 0.776 | 0.703 | 0.889 | 0.994 | 1.05 | 0.929 | 1.07 | 0.911 | 0.787 | 0.755 | 0.873 | 0.735 | 0.734 | 0.693 | 0.755 | 0.629 | 0.614 | 0.545 | 0.658 |
| NCI-H1944 | 0.245 | 0.263 | 0.251 | 0.243 | 0.917 | 0.898 | 0.731 | 0.995 | 1.39 | 1.1 | 1.05 | 1.27 | 0.946 | 0.912 | 0.823 | 0.905 | 0.413 | 0.372 | 0.399 | 0.437 |
| NCI-H520 | 0.468 | 0.369 | 0.348 | 0.409 | 1.12 | 0.662 | 0.845 | 0.871 | 0.873 | 0.759 | 0.515 | 0.924 | 1.07 | 0.712 | 0.885 | 1.04 | 0.362 | 0.302 | 0.185 | 0.302 |
| NCI-H2228 | 0.217 | 0.217 | 0.286 | 0.235 | 1.42 | 0.935 | 0.949 | 0.891 | 0.613 | 0.506 | 0.484 | 0.512 | 1.03 | 0.992 | 0.735 | 0.933 | 0.778 | 0.5 | 0.483 | 0.78 |
| EKVX | 0.431 | 0.448 | 0.32 | 0.4 | 0.835 | 0.445 | 0.743 | 0.786 | 1.22 | 0.935 | 0.813 | 1.23 | 0.943 | 0.844 | 0.857 | 1.1 | 0.723 | 0.604 | 0.752 | 0.833 |
